This is an account of results in patent US20230390315A1, “COMPOSITIONS AND METHODS FOR TREATING ISCHEMIC CONDITIONS” (The Regents of the University of California, priority 2020, published 2023).

One data set relates to HUVEC. Kind of data set: HUVEC proliferation assay. In kind it is cell-based, human. The protocol: Proliferation assays with BCECs and BRECs were performed. Log-phase growing BCECs or BRECs (passage <10) were trypsinized, re-suspended and seeded in 96-well plates (no coating) in low-glucose DMEM supplemented with 10% bovine calf serum, 2 mM glutamine, and antibiotics (growth medium), at a density of 1200-1500 cells per well in 200 μl volume. All reagents were added at the indicated final concentrations. After 3-6 days, cells were incubated with AlamarBlue for 4 hrs. Fluorescence was measured at 530 nm excitation wavelength and 590 nm emission wavelength. The experiments were repeated at least three times. To create a hypoxic condition, cells were placed in a hypoxia incubator with a mixture of gas consisting of 1% 02, 5% CO2 and 94% Nz. On each 96-well plate, untreated and VEGF-treated (10/ng/ml) wells were included to monitor plate-to-plate variations. 20% methanol or 0.05% DMSO served as negative controls. 0.05% DMSO served as negative controls when Cas was tested in these cells. Human RMVECs and human adult DMVECs were split into Gelatin-coated 96 wells (2000 cells per well) in low glucose DMEM containing 10% FBS. 1200 cells/well was set up for proliferation assay in low glucose media containing FBS. Data was collected at day 4 or 5. HUVEC (p7-10) were grown on gelatin-coated plate until it reached 70-80% confluency.
On the day of the assay, cells were dissociated with 0.05% trypsin, which was neutralized with 0.5% FBS-containing EBM. Cells were briefly spun and then re-suspended in 0.5% FBS-media. Cells were counted and plated in 96-well, 1000 cells/well. Triplicate wells were used for each treatment. Data were collected at day 3, and then cells were fixed in 4% paraformaldehyde for 15 min before adding crystal violet. Cell-covered areas were quantified after taking pictures by Image J software.

For a further data set, the system named is human dermal fibroblasts. Kind of data set: Human dermal fibroblast proliferation assay. The note with it: alone or in combination with growth factors. The format is cell-based. The protocol:
Proliferation assays with fibroblasts were done in low-glucose DMEM containing 1% FBS, with or without 10 ng/ml bFGF, or 100 ng/ml human EGF and the assay was ended at day 3. ARPE-19 cells were gently lifted with 0.025% trypsin and plated in RtEGM media (Clonetics) containing 2% FBS, L-glutamine, human bFGF and GA-1000. Once cells were attached to plates, serum-free RtEGM media was used to maintain the cultures. For proliferation assays, 1500 human RPE cells were plated into 96-well plates in low-glucose DMEM containing 1% FBS. A673, U87MG, Calu6 and AML12 cells were grown until confluent and were then harvested and re-suspended in appropriate assay media. For proliferation assays, cells were plated at the density of 1000-2000 cells/well in low-glucose DMEM containing 5% FBS or otherwise stated. Bovine pituitary cells (pituitary folliculostellate cells) were isolated as previously described. For proliferation assays with human epidermal keratinocytes, human DMVECs and human dermal fibroblast cells, 1000 cells/well were plated in low-glucose DMEM containing 1% FBS with or without various growth factors. The assay was ended at day 3 for bovine pituitary cells and at day 4 for all the other cell types. […] Four days later, tumor cell growth was measured by the MTS assay (Promega, Madison, WI), a colorimetric assay that measures metabolic activity of viable cells. […]

The subject of the next data set is skin wound. Kind of data set: Skin wound healing model (splinted wound). The format is in vivo, mouse. The note with it: day 4; topical 20 μg daily. The source says:
The model has been previously described. Briefly, C57BL/6 female mice (8-10 weeks old) were obtained from Jackson labs (Sacramento, CA). A fresh, full-thickness punch wound (4 mm diameter) using a punch (Acu Punch, Acuderm inc. Ft. Lauderdale, FL) splinted with a sterile neoprene ring (6-mm outer diameter and 4-mm inner diameter), fastened with 5-6 sutures (4-0 nylon) under the influence of Isoflurane was created on the back of the animal in a Class II Biological Safety Cabinet. For all surgical procedures, sterile technique was followed. Buprenorphine was given subcutaneously prior to awakening from anesthesia for anticipated pain. Mice were monitored until fully awake and were housed individually to minimize damage/biting/fighting to the surgical site. […] Treatment agents were prepared in PBS, sterile-filtered and 25 μl solution was applied daily directly to a wound bed for the first 4-5 days under the influence of Isoflurane, followed by daily observation. Wound closure was monitored by regular imaging and the wound area was quantified using ImageJ (National Institutes of Health, Bethesda, MD, USA). […] Epithelial gap was measured histomorphometrically using AxioVision LE Rel.4.4 software. […] Small vessels stained positive for CD31 were counted microscopically on 10 fields (20×) taken around the wound.

For `N[C@H](C=O)[C@@H](O)[C@H](O)[C@H](O)CO` [ManN, 2-Amino-2-deoxy-D-mannose], the “additivity with VEGF on proliferation” value in the data set with HUVEC (HUVEC) is “dose-dependent additivity with VEGF”. Further, the toxicity result in the data set with HUVEC (HUVEC, at 5 mM) is “minimal toxicity”. For the same compound, the HUVEC growth entry in the data set with HUVEC (ManN by itself) is “stimulated”. The “proliferation of human dermal fibroblasts” value with human dermal fibroblasts is “no increases in proliferation”. Moreover, the “average closure of the wound” value in the data set with skin wound was determined as 75.6%.
